# Assays:
# Assay in all cases: KINOMEscan
# Type in all cases: binding
# Settings in all cases: read-out: Remaining enzyme activity
# CTK = target: T1, CTK (Homo sapiens, UniProt P42679)
# T1 construct: purchased Ambit (DiscoverX) KINOMEscan; Cerep
# In short: (§1)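 SC81458 was screened at a single 10 μM final concentration for its ability to compete with an immobilized, active-site directed ligand for each kinase. Kinase in the eluates was measured by quantitative PCR. Beads were blocked with biotin and SeaBlock buffer holding 1% BSA, 0.05% Tween 20 and 1 mM DTT.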
# RET(V804M) = target: T2, RET(V804M) (Homo sapiens, UniProt P07949, V804M)
# T2 construct: purchased Ambit (DiscoverX) KINOMEscan; Cerep
# In short: as §1
# [1] = target: T3, JAK1(JH1domain-catalytic) (Homo sapiens, UniProt P23458)
# T3 construct: JAK1(JH1domain-catalytic); purchased Ambit (DiscoverX) KINOMEscan; Cerep
# In short: as §1
# TSSK1B = target: T4, TSSK1B (Homo sapiens, UniProt Q9BXA7)
# T4 construct: purchased Ambit (DiscoverX) KINOMEscan; Cerep
# In short: as §1
# p38-beta = target: T5, p38-beta (Homo sapiens, UniProt Q15759)
# T5 construct: purchased Ambit (DiscoverX) KINOMEscan; Cerep
# In short: as §1
# TLK2 = target: T6, TLK2 (Homo sapiens, UniProt Q86UE8)
# T6 construct: purchased Ambit (DiscoverX) KINOMEscan; Cerep
# In short: as §1
# GSK3a = target: T7, GSK3a (Homo sapiens, UniProt P49840)
# T7 construct: purchased Ambit (DiscoverX) KINOMEscan; Cerep
# In short: as §1
# FLT3(D835Y) = target: T8, FLT3(D835Y) (Homo sapiens, UniProt P36888, D835Y)
# T8 construct: purchased Ambit (DiscoverX) KINOMEscan; Cerep
# In short: as §1
# FER = target: T9, FER (Homo sapiens, UniProt P16591)
# T9 construct: purchased Ambit (DiscoverX) KINOMEscan; Cerep
# In short: as §1
# CAMK1g = target: T10, CAMK1g (Homo sapiens, UniProt Q96NX5)
# T10 construct: purchased Ambit (DiscoverX) KINOMEscan; Cerep
# In short: as §1
# ACVR2b = target: T11, ACVR2b (Homo sapiens, UniProt Q13705)
# T11 construct: purchased Ambit (DiscoverX) KINOMEscan; Cerep
# In short: as §1
# ERBB2 = target: T12, ERBB2 (Homo sapiens, UniProt P04626)
# T12 construct: purchased Ambit (DiscoverX) KINOMEscan; Cerep
# In short: as §1
# KIT(V559D, T670I) = target: T13, KIT(V559D, T670I) (Homo sapiens, UniProt P10721, T670I/V559D)
# T13 construct: purchased Ambit (DiscoverX) KINOMEscan; Cerep
# In short: as §1
# GRK1 = target: T14, GRK1 (Homo sapiens, UniProt Q15835)
# T14 construct: purchased Ambit (DiscoverX) KINOMEscan; Cerep
# In short: as §1
# YSK1 = target: T15, YSK1 (Homo sapiens, UniProt O00506)
# T15 construct: purchased Ambit (DiscoverX) KINOMEscan; Cerep
# In short: as §1
# MST1R = target: T16, MST1R (Homo sapiens, UniProt Q04912)
# T16 construct: purchased Ambit (DiscoverX) KINOMEscan; Cerep
# In short: as §1
# GCN2(kin.Dom.2, S808G) = target: T17, GCN2(kin.Dom.2, S808G) (Homo sapiens, UniProt Q9P2K8, S808G)
# T17 construct: GCN2(kin.Dom.2, S808G); purchased Ambit (DiscoverX) KINOMEscan; Cerep
# In short: as §1
# CDK2 = target: T18, CDK2 (Homo sapiens, UniProt P24941)
# T18 construct: purchased Ambit (DiscoverX) KINOMEscan; Cerep
# In short: as §1
# ABL1(E255K) = target: T19, ABL1(E255K) (Homo sapiens, UniProt P00519, E255K)
# T19 construct: purchased Ambit (DiscoverX) KINOMEscan; Cerep
# In short: as §1
# MARK4 = target: T20, MARK4 (Homo sapiens, UniProt Q96L34)
# T20 construct: purchased Ambit (DiscoverX) KINOMEscan; Cerep
# In short: as §1
# DRAK1 = target: T21, DRAK1 (Homo sapiens, UniProt Q9UEE5)
# T21 construct: purchased Ambit (DiscoverX) KINOMEscan; Cerep
# In short: as §1
# ABL1 = target: T22, ABL1 (Homo sapiens, UniProt P00519)
# T22 construct: purchased Ambit (DiscoverX) KINOMEscan; Cerep
# In short: as §1
# PFTK1 = target: T23, PFTK1 (Homo sapiens, UniProt O94921)
# T23 construct: purchased Ambit (DiscoverX) KINOMEscan; Cerep
# In short: as §1
# MST2 = target: T24, MST2 (Homo sapiens, UniProt Q13188)
# T24 construct: purchased Ambit (DiscoverX) KINOMEscan; Cerep
# In short: as §1
# EPHB2 = target: T25, EPHB2 (Homo sapiens, UniProt P29323)
# T25 construct: purchased Ambit (DiscoverX) KINOMEscan; Cerep
# In short: as §1
# PIK4Cb = target: T26, PIK4Cb (Homo sapiens, UniProt Q9UBF8)
# T26 construct: purchased Ambit (DiscoverX) KINOMEscan; Cerep
# In short: as §1
# FGFR2 = target: T27, FGFR2 (Homo sapiens, UniProt P21802)
# T27 construct: purchased Ambit (DiscoverX) KINOMEscan; Cerep
# In short: as §1
# FGFR4 = target: T28, FGFR4 (Homo sapiens, UniProt P22455)
# T28 construct: purchased Ambit (DiscoverX) KINOMEscan; Cerep
# In short: as §1
# CDC2L2 = target: T29, CDC2L2 (Homo sapiens, UniProt Q9UQ88)
# T29 construct: purchased Ambit (DiscoverX) KINOMEscan; Cerep
# In short: as §1
# ADCK4 = target: T30, ADCK4 (Homo sapiens, UniProt Q96D53)
# T30 construct: purchased Ambit (DiscoverX) KINOMEscan; Cerep
# In short: as §1
# [2] = target: T31, RPS6KA5(Kin.Dom.2-C-term) (Homo sapiens, UniProt O75582)
# T31 construct: RPS6KA5(Kin.Dom.2-C-term); purchased Ambit (DiscoverX) KINOMEscan; Cerep
# In short: as §1
# T13 sequence (P10721 26-976 V559D/T670I): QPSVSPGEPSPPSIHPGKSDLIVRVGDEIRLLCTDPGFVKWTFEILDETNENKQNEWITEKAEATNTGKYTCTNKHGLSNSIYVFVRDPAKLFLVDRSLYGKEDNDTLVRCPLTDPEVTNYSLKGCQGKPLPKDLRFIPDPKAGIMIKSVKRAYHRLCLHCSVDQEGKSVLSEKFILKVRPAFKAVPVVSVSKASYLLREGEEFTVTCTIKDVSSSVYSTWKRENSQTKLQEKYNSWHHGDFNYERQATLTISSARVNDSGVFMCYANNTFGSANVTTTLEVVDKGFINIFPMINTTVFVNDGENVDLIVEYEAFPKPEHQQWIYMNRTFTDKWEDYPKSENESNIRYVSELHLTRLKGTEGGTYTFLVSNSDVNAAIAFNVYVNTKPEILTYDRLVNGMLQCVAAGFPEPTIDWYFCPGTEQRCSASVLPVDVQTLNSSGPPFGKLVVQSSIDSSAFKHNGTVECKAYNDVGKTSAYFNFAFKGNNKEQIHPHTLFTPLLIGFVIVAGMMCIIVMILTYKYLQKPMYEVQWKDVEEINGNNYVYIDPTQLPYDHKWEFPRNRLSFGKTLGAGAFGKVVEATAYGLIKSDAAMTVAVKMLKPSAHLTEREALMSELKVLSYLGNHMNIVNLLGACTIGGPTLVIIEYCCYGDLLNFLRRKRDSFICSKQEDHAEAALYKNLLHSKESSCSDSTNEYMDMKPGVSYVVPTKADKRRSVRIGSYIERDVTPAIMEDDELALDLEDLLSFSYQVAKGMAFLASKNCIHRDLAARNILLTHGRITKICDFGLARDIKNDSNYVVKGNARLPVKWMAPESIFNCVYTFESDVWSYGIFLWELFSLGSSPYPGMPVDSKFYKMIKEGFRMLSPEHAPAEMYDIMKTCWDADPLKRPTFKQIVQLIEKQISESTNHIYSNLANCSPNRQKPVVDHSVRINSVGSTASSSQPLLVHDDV
# T1 sequence (P42679 whole entry): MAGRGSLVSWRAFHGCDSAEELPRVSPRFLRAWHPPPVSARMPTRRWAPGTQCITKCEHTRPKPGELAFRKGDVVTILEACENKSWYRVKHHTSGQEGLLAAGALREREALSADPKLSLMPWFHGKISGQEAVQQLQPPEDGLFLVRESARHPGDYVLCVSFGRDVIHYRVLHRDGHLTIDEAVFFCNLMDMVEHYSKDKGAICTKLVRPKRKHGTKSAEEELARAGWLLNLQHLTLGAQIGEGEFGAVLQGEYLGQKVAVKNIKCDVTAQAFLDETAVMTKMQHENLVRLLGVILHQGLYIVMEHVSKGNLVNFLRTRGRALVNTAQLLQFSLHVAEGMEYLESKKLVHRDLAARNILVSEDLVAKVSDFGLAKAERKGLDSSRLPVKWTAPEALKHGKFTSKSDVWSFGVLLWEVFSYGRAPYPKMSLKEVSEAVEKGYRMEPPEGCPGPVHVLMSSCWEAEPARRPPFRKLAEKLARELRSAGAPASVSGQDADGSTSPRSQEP
# T26 sequence (Q9UBF8 whole entry): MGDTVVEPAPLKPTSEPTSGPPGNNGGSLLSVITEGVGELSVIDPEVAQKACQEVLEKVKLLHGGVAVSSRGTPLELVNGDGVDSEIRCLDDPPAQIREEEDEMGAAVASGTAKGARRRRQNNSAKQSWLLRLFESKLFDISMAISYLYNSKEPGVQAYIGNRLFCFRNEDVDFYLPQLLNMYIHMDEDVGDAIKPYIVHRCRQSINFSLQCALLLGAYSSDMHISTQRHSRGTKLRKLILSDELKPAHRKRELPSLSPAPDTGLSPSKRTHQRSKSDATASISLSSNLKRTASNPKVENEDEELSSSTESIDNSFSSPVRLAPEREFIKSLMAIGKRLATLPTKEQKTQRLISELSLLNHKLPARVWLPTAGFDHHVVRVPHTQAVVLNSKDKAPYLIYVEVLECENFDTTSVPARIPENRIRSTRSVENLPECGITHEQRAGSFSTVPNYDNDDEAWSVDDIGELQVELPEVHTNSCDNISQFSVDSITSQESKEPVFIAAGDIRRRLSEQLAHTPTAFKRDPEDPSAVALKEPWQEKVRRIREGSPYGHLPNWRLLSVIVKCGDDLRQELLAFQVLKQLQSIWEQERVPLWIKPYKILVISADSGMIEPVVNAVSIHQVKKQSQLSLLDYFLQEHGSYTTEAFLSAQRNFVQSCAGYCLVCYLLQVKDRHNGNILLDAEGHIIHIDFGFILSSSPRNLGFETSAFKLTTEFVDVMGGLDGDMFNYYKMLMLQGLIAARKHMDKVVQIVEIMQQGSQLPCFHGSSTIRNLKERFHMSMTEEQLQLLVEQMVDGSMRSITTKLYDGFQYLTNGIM
# T9 sequence (P16591 whole entry): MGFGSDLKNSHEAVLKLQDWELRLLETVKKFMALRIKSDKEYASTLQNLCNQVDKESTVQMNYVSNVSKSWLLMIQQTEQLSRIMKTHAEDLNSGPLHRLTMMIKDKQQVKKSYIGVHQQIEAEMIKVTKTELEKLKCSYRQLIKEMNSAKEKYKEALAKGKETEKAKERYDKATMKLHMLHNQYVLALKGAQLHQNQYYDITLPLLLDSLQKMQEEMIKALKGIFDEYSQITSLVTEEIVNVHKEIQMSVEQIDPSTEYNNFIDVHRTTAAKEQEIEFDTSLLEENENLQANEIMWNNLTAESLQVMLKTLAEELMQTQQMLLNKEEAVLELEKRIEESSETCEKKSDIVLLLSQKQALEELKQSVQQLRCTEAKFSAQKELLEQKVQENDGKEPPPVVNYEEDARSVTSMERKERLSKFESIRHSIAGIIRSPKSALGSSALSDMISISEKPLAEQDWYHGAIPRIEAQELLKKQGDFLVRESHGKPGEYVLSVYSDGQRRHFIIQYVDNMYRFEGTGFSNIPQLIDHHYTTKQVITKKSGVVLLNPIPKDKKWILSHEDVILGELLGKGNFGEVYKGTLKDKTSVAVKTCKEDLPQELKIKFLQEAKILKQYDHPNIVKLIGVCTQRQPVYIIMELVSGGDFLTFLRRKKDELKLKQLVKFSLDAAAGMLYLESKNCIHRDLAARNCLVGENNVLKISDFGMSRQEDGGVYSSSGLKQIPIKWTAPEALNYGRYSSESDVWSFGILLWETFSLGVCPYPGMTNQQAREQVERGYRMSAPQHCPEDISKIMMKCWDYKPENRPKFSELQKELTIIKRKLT
# T22 sequence (P00519 whole entry): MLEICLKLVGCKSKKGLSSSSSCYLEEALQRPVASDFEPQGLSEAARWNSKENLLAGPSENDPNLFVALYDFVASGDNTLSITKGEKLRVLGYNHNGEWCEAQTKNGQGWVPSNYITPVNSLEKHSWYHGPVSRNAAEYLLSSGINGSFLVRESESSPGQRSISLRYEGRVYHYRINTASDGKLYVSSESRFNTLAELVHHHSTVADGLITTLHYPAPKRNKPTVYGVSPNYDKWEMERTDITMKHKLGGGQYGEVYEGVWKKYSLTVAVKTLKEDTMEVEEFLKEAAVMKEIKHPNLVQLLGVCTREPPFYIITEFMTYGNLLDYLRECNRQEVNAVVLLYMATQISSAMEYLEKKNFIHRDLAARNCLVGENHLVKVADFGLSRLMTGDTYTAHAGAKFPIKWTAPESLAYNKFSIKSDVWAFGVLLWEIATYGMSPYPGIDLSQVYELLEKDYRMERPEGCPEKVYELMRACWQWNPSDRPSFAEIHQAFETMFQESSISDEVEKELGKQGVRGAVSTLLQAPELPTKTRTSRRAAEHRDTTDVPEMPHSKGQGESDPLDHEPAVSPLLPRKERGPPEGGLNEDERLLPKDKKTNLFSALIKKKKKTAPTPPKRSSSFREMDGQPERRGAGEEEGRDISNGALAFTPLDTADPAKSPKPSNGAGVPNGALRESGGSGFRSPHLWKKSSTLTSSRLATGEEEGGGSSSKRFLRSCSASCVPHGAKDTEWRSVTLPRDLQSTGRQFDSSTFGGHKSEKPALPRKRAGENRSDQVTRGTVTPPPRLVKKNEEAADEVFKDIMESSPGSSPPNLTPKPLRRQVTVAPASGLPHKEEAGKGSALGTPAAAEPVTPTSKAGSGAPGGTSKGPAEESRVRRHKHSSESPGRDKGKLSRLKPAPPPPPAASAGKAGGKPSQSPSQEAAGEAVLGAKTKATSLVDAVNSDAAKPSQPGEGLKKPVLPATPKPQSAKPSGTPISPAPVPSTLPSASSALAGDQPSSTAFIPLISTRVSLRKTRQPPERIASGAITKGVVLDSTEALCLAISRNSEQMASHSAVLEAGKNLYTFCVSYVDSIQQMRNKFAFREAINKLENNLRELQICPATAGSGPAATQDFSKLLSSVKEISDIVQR
# T5 sequence (Q15759 whole entry): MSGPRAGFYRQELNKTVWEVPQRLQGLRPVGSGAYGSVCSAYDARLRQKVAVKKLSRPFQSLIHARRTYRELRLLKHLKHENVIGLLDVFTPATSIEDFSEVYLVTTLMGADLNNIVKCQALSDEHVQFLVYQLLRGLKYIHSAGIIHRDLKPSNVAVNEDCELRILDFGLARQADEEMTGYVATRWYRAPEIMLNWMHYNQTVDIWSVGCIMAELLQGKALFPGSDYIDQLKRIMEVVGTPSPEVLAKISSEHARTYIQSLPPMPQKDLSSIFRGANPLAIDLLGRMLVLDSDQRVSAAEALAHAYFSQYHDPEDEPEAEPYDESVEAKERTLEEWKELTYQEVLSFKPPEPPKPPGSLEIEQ
# T21 sequence (Q9UEE5 whole entry): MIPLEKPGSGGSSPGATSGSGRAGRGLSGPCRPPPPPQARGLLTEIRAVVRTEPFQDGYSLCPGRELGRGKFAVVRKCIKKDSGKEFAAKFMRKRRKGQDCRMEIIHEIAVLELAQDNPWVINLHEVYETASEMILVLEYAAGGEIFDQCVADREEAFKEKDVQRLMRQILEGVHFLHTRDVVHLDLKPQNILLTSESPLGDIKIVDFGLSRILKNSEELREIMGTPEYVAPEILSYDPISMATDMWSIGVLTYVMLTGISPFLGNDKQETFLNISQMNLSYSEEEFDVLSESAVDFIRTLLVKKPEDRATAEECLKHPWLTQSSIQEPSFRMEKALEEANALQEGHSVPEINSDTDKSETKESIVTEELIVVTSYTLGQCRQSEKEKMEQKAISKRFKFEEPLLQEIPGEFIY
# T19 sequence (P00519 whole entry E255K): as the sequence (P00519 whole entry) above, with E255K counted along it
structure (smiles),measurement,setting,value
"CCCCN1CCN(C(=N)c2cccc(NC(=O)Nc3ccc(S(=O)(=O)NCc4ccc(S(N)(=O)=O)cc4)cc3)c2)CC1 [SC81458, 4-(3-(3-((4-butylpiperazin-1-yl)(imino)methyl)phenyl)ureido)-N-(4-sulfamoylbenzyl) benzenesulfonamide]",remaining binding at 10 µM,CTK,100%
same,remaining binding at 10 µM,RET(V804M),100%
same,remaining binding at 10 µM,[1],87%
same,remaining binding at 10 µM,TSSK1B,97%
same,remaining binding at 10 µM,p38-beta,100%
same,remaining binding at 10 µM,TLK2,97%
same,remaining binding at 10 µM,GSK3a,100%
same,remaining binding at 10 µM,FLT3(D835Y),89%
same,remaining binding at 10 µM,FER,100%
same,remaining binding at 10 µM,CAMK1g,98%
same,remaining binding at 10 µM,ACVR2b,93%
same,remaining binding at 10 µM,ERBB2,100%
same,remaining binding at 10 µM,"KIT(V559D, T670I)",85%
same,remaining binding at 10 µM,GRK1,100%
same,remaining binding at 10 µM,YSK1,76%
same,remaining binding at 10 µM,MST1R,91%
same,remaining binding at 10 µM,"GCN2(kin.Dom.2, S808G)",100%
same,remaining binding at 10 µM,CDK2,100%
same,remaining binding at 10 µM,ABL1(E255K),100%
same,remaining binding at 10 µM,MARK4,100%
same,remaining binding at 10 µM,DRAK1,98%
same,remaining binding at 10 µM,ABL1,100%
same,remaining binding at 10 µM,PFTK1,100%
same,remaining binding at 10 µM,MST2,100%
same,remaining binding at 10 µM,EPHB2,100%
same,remaining binding at 10 µM,PIK4Cb,100%
same,remaining binding at 10 µM,FGFR2,100%
same,remaining binding at 10 µM,FGFR4,100%
same,remaining binding at 10 µM,CDC2L2,100%
same,remaining binding at 10 µM,ADCK4,100%
same,remaining binding at 10 µM,[2],100%

# Reference: publication PMC5290327, “SC83288 is a clinical development candidate for the treatment of severe malaria” (Nature Communications, 2017)
